Experiments:
Type in all cases: biochemical
[1] = target: T1, A156S mutant of the HCV NS3/4A 1b protease enzyme (Hepatitis C virus genotype 1b, UniProt P26663, A1182S); assay: HCV protease FRET assay, A156S mutant; details: read-out: Inhibition, HCV A156S (IC50)
T1 construct: 10× stocks of NS3/4A protease enzyme from Bioenza; purchased Bioenza (Mountain View, Calif.)
Method: (§1) HCV Protease FRET Assay for Mutated NS3/4A 1b Enzymes
(§2) The protocol is a modified FRET-based assay (v—02) from In Vitro Resistance Studies of HCV Serine Protease Inhibitors, 2004, JBC, vol. 279, No. 17, pp 17508-17514. Inherent potency of compounds was assessed against A156S, A156T, D168A, and D168V mutants of the HCV NS3/4A 1b protease enzyme as follows: […]
(§3) 10× stocks of NS3/4A protease enzyme from Bioenza (Mountain View, Calif.) and 1.13×5-FAM/QXL™520 FRET peptide substrate from Anaspec (San Jose, Calif.) were prepared in 50 mM HEPES, pH 7.8, 100 mM NaCl, 5 mM DTT and 20% glycerol. 5 μL of each enzyme were pre-incubated in a Corning (#3573) 384-well, black, non-treated microtiter plate (Corning, N.Y.) for 30 min at 25° C. with a 0.5 μL volume of 50% DMSO and serially diluted compounds prepared in 50% DMSO. Protease reactions were started with the addition of 45 μL of the FRET substrate and monitored for 120 minutes at λex487/λem514 through Quad^4 monochromoters in a Synergy^4 plate reader from BioTek (Winooski, Vt.). At the conclusion of each assay, progress curves from each well were examined for linear reaction kinetics and fit statistics (R^2, absolute sum of squares). Initial velocity (0 minutes to 30+ minutes) from each reaction was determined from the slope of a plot of relative fluorescence units vs time (minutes) and then plotted against inhibitor concentration to estimate IC50 from log[Inhibitor] vs Response, Variable Slope model in GraphPad Prism from GraphPad Software (San Diego, Calif.). […]
(§4) The compound numbers correspond to the compound numbers in Table 3. Compounds having an activity designated as “A” provided an IC50≦10 nM; compounds having an activity designated as “B” provided an IC50>10 nM and ≦100 nM; compounds having an activity designated as “C” provided an IC50>100 nM and ≦1000 nM; and compounds having an activity designated as “D” provided an IC50>1000 nM and <10,000 nM.

[2] = target: T2, R155K mutant of the HCV NS3/4A 1b protease enzyme (Hepatitis C virus genotype 1b, UniProt P26663, R1181K); assay: HCV protease FRET assay, R155K mutant; details: read-out: Inhibition, HCV R155K (IC50)
T2 construct: 10× stocks of NS3/4A protease enzyme from Bioenza; purchased Bioenza (Mountain View, Calif.)
From the text: (§5) HCV Protease FRET Assay for WT and Mutated NS3/4A 1b Enzymes (IC50 —APP)
The following protocol was used to generate “apparent” IC50 (IC50—APP)) values as depicted in Table 3, below. Without wishing to be bound by any particular theory, it is believed that IC50—APP, contrasted with IC50 values, may provide a more useful indication of time-dependent inhibition, and are thus more representative of binding affinity. The protocol is a modified FRET-based assay (v—03) developed to evaluate compound potency, rank-order and resistance profiles against wild type and C159S, A156S, A156T, D168A, D168V, R155K mutants of the HCV NS3/4A 1b protease enzyme as follows: 10× stocks of NS3/4A protease enzyme from Bioenza (Mountain View, Calif.) and 1.13×5-FAM/QXL™520 FRET peptide substrate from Anaspec (San Jose, Calif.) were prepared in 50 mM Tris-HCl, pH 7.5, 5 mM DTT, 2% CHAPS and 20% glycerol. 5 μL of each enzyme were added to Corning (#3575) 384-well, black, microtiter plates (Corning, N.Y.) after spotting a 0.5 μL volume of 50% DMSO and serially diluted compounds prepared in 50% DMSO. Protease reactions were immediately started after enzyme addition with the addition of 45 μL of the FRET substrate and monitored for 60-90 minutes at λex485/λem520 in a Synergy^4 plate reader from BioTek (Winooski, Vt.). […]

[3] = target: T3, wild type HCV NS3/4A 1b protease enzyme (Hepatitis C virus genotype 1b, UniProt P26663); assay: HCV protease FRET assay, wild type NS3/4A 1b enzyme
T3 construct: 10× stocks of NS3/4A protease enzyme from Bioenza; purchased Bioenza (Mountain View, Calif.)
From the text: Method B: HCV Protease FRET Assay for Wild Type and Mutated NS3/4A 1b Enzymes (IC50)
A quantitative, fluorescence resonance energy transfer (FRET)-based methodology was employed to identify HCV NS3/4A protease inhibitors. The assay employed a synthetic FRET peptide, derived from the HCV NS5A/5B cleavage site, with the HCV protease to evaluate the activity of compounds against the protease by monitoring the cleavage activity of the complex. A synthetic peptide which encompasses the NS5A-5B junction (NH2-[…]-COOH) (SEQ ID NO: 78) was labeled with Dabcyl and Edans at N- and C-termini, respectively (Invitrogen, Carlsbad, Calif.). Fluorescence measurement was used to estimate the IC50 value of the test compound. […] Upon cleavage of the FRET peptide by HCV NS3/4A proteinase complex (100 ng/mL), the fluorescence is recovered and can be continuously monitored at excitation/emission=340/490 nm.
Assay buffer: 2% CHAPS, 50 mM Tris pH 7.5, 50% glycerol, 2 uM M-2235 (Bachem) substrate. In a 50 μl reaction, add 49 μl assay buffer, 1 μl (1 U) HCV serine protease (Bioenza). Incubate 20 minutes at room temperature. The plate was read at either 350/460 nm (excitation/emission) on a fluorescent micro-plate reader or monitored at one-minute intervals to achieve the kinetic curve.
as §5
The following protocol was used to generate “apparent” IC50 (IC50—APP)) values as depicted in Table 3, below. Without wishing to be bound by any particular theory, it is believed that IC50—APP, contrasted with IC50 values, may provide a more useful indication of time-dependent inhibition, and are thus more representative of binding affinity. […] Protease reactions were immediately started after enzyme addition with the addition of 45 μL of the FRET substrate and monitored for 60-90 minutes at λex485/λem520 in a Synergy^4 plate reader from BioTek (Winooski, Vt.). […]

[4] = target: T4, D168A mutant of the HCV NS3/4A 1b protease enzyme (Hepatitis C virus genotype 1b, UniProt P26663, D1194A); assay: HCV protease FRET assay, D168A mutant; details: read-out: Inhibition, HCV D168A (IC50)
T4 construct: 10× stocks of NS3/4A protease enzyme from Bioenza; purchased Bioenza (Mountain View, Calif.)
Method: as §1, §2, §3, §4

Which results are given for `CC(C)(C)OC(=O)NC1CN(C(=O)CCl)CCC/C=C\[C@@H]2C[C@@]2(C(=O)NS(=O)(=O)C2CC2)NC(=O)[C@@H]2C[C@@H](OC(=O)N3Cc4cccc(F)c4C3)CN2C1=O` (some centres unmarked) [Compound 8]?
IC50 [1]: < 10 nM; IC50 [2]: 10 to 100 nM; IC50 [3]: < 10 nM; IC50 [4]: 10 to 100 nM

`C=C[C@@H]1C[C@]1(NC(=O)[C@@H]1C[C@@H](Oc2cc(-c3ccccc3)nc3cc(OC)ccc23)CN1C(=O)C(NC(=O)OC(C)(C)C)[C@@H](C)OC(=O)/C=C/C)C(=O)NS(=O)(=O)C1CC1` (some centres unmarked) [Compound 3] was tested. Which IC50 [1] did it give?
Its IC50 is less than 10 nM.

And the IC50 [3]?
The IC50 was less than 10 nM.

And the IC50 [4]?
Its IC50 is 100 to 1000 nM.

Which results are given for `C=CC(=O)N(C)C[C@H](NC(=O)OC(C)(C)C)C(=O)N1C[C@H](OC(=O)N2Cc3cccc(F)c3C2)C[C@H]1C(=O)N[C@]1(C(=O)NS(=O)(=O)C2CC2)C[C@H]1C=C` [Compound 4]?
IC50 [1]: < 10 nM; IC50 [2]: 10 to 100 nM; IC50 [3]: < 10 nM; IC50 [4]: 10 to 100 nM

From patent US8603737B2, “Methods for identifying HCV protease inhibitors” (priority 2008, dated 2013)
